This is an account of results in patent publication US8598132B2, “Glycosylated indolocarbazoles, method for obtaining same and uses thereof” (Universidad de Oviedo, priority 2008, dated 2013).

Assay [1] has as its target T1, Ikkb (Homo sapiens, UniProt O14920).
T1 sequence (O14920 1-756): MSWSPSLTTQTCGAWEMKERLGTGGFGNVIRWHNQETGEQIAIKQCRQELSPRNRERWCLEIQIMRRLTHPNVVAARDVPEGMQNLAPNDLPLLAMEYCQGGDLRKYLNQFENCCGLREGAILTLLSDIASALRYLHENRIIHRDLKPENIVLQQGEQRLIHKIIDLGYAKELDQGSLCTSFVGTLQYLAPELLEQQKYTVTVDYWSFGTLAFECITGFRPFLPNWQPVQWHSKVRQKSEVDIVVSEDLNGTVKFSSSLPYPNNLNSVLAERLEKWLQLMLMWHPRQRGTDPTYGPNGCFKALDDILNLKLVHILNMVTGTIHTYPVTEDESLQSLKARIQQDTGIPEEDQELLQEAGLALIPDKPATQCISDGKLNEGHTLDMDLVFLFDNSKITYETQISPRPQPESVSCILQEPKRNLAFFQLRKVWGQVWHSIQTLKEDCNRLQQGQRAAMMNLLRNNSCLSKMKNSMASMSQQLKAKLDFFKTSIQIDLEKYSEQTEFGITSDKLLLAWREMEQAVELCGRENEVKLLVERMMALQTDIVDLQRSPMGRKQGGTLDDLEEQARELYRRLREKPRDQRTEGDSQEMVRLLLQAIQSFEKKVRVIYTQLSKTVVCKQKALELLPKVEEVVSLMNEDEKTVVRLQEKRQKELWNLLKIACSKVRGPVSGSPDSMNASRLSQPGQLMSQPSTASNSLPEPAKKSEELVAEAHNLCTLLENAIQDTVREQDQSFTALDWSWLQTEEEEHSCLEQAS
The experiment in a line: LabChip (Caliper) kinase assay, Ikkb. It is filed as biochemical. Conditions: for inhibition at 0.01 µM: compound at 10 nM; for inhibition at 0.01 µM / inhibition at 0.1 µM: read-out: remaining kinase activity (in %) / percentage of inhibition; for inhibition at 0.1 µM: compound at 100 nM; for IC50: ATP at Km, read-out: CI50 (the source's name). Here is the method:
(§1) The analysis of kinase activity described here was performed using LabChip (Caliper Life Sciences), specifically the Caliper LC3000 and the EZ Reader II instruments.
(§2) The kinase assay used measures the conversion of a fluorescent peptide (substrate) to a phosphorylated product. The reaction mixture, in a microplate well, is introduced by a capillary in a chip where the non-phosphorylated substrate and the phosphorylated product are separated by […]. The intensity of the fluorescent signal over time is related to the reaction progress. The phosphorylated product migrates quicker than the non-phosphorylated substrate and the signals of the two forms of the peptide appear as differentiated peaks. The Caliper determines the peak height and calculates the ratio of product to the peak sum (P/(P+S)). This value is used to compare wells with compounds and wells with controls and thus determine the % of inhibition for the given product.
(§3) The followings kinases were used for the enzymatic inhibition studies, between brackets the value of the Michaelis-Menten constant, Km, of the ATP (Adenosine triphosphate) for each kinase, in μM: obtained from Carna Biosciences: MAPKAPK2 (4.6), AurA (3.6), AurB (5), PKCζ (3.8), RSK1 (23.3), PRAK (5), Erk1 (33.4), PKD2 (32.1), CK1d (16.3), CHK1 (33), ABL (61.7), FYN (36), LYNa (17), CHK2 (57.8), MET (79.5), LCK (28.5), SRC (38), GSK3β (7.3), Erk2 (62.1), PKACα (1.7), AKT2 (186.1), INSR (871.8), p38a (396.5), AKT1(48), MSK1 (21.2), PKCβ2 (84.8), ROCK2 (3.3), PIM2 (4.9), AMPK (38.6), KDR (164.8), IRAK4 (196.5), SGK1 (121.8), SYK (33.5); obtained from Invitrogen: CDK2 (57.6), BTK (123), HGK (80); obtained from Upstate: MST2 (36.6), PKGα (16), PAK2 (1.9), IGF1R (320), FGFR1 (171), MARK1 (33), CAMK2δ (22.4), c-TAK1 (66), DYRK1a (18.1), CaMK4 (3.9), FLT3 (350), c-Raf (6.2), P70S6K (95).
(§4) The compounds were dissolved in 100% DMSO and were diluted at 25 times the final concentration desired for the assay. In the case of the determination of Cl50, serial dilutions were made to reach eight concentrations and give rise to the inhibition curve. 1 μL of each concentration is transferred, in duplicate to a 384-well microplate. 12 μL of enzymatic buffer is added to each well containing purified kinase (several suppliers as indicated above), 100 mM HEPES, pH 7.5, 1 mM DTT (Calbiochem), 0.002% Brij-35 (Sigma) and also in presence of 10 mM MgCl2 as cofactor, except for INSR and IRAK4 wherein 10 mM MnCl2 is used instead of MgCl2. For the kinases CAMK26 and CAMK4, 1 mM CaCl2 and 6.7 μg/mL of calmodulin are also added. For KDR kinase, 0.05% of the CHAPSO detergent is added. For the c-Raf kinase, 10 mM MnCl2 is added. For PKCβ2 0.02 μg/mL of PS/PMA is added. For PKGα se 10 μM of cGMP (cyclic guanosine monophosphate) is added. The compound and the enzyme are left for 15 minutes preincubation and, then, the following are added to each well: 12 μL of peptide buffer/ATP containing 100 mM HEPES, pH 7.5, 1.5 μM peptide marker with fluorescein (specific for the corresponding kinase), ATP (at concentration KM), and 0.002% Brij-35 to start the reaction. Generally, the reactions are incubated for 1-1.5 h at ambient temperature to obtain an adequate conversion (15-40%) of the peptide to the phosphorylated product. The reactions were ended by the addition of 45 μL of buffer containing 0 mM EDTA. The microplates were read by the LabChip 3000 using a 12-channel LabChip. The P/(P+S) values were obtained as described above and the CI50 curves were generated using XIfit.
(§5) Table 9a has the 0150 data obtained in pairs of compound-kinase selected from the compounds of formula (VII), (VIII), (IX), (XVI), (XVII) and (XVIII) after taking inhibition measurements at 100 nM and 10 nM. Those couples that provide >70% of inhibition at 10 nM were consider for measuring its IC50. […]

Assay [2] deals with JAK2 (Homo sapiens, UniProt O60674). The experiment in a line: LabChip (Caliper) kinase assay, JAK2. As to conditions: for inhibition at 0.01 µM / inhibition at 0.1 µM: JAK2, read-out: remaining kinase activity (in %) / percentage of inhibition; for inhibition at 0.01 µM: compound at 10 nM; for inhibition at 0.1 µM: compound at 100 nM; for IC50: Jak2, ATP at Km, read-out: CI50 (the source's name). Format: biochemical. Here is the method:
as §1, §2, §3, §4, §5

Chain of JAK2 (O60674 whole entry, species assumed): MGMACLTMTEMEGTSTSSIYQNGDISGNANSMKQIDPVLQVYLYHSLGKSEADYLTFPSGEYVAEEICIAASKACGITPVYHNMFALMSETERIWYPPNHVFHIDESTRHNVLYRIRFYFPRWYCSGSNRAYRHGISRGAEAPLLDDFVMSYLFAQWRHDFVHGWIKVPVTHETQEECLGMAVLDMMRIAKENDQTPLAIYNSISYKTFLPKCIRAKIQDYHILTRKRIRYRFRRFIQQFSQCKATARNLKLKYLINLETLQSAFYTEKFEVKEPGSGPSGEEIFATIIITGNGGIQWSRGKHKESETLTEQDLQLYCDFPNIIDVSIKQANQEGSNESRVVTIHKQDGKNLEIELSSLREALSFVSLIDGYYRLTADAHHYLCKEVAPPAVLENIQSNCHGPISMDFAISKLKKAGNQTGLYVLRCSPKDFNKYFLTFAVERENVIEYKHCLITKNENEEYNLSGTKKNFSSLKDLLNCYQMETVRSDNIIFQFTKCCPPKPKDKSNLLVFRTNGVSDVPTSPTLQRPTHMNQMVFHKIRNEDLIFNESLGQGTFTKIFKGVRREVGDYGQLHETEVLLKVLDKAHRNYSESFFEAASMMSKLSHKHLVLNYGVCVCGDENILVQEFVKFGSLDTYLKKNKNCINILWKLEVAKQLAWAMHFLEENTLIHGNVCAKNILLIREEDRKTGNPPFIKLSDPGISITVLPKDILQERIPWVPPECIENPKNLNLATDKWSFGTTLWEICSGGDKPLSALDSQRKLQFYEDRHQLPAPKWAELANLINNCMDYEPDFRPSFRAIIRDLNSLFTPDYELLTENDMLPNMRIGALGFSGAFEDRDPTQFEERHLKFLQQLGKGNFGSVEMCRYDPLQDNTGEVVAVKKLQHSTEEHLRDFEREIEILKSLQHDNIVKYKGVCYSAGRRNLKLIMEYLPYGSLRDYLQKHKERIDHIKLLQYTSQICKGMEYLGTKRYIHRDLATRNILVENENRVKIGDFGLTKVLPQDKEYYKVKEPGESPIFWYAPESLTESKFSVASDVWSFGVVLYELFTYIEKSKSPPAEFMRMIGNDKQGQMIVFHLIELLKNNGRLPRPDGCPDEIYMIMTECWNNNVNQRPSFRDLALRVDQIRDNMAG

For the molecule `C[C@H]1O[C@@H](n2c3ccccc3c3c4c(c5c6ccccc6[nH]c5c32)CNC4=O)C[C@@H](O)[C@@H]1O` [formula (XV), N^13-1′-β-D-olivosyl-k252c], in assay [1], the inhibition at 0.01 µM was -5% and the inhibition at 0.1 µM is 16%. In addition, in assay [2], the inhibition at 0.01 µM turned out to be 37% and the inhibition at 0.1 µM is 89%.
In the case of `C[C@]12O[C@H](C[C@H](O)[C@H]1O)n1c3ccccc3c3c4c(c5c6ccccc6n2c5c31)CNC4=O` [formula (XVII), N^12-5′(S)-N^13-1′-(R)-L-olivosyl-k252c], in assay [2], the IC50 was 0.57 nM.
Consider `C[C@@H]1O[C@@H](n2c3ccccc3c3c4c(c5c6ccccc6[nH]c5c32)CNC4=O)[C@H](O)[C@H](O)[C@H]1O` [formula (XII), N^13-1′-β-L-rhamnosyl-k252c], for which, in assay [1], the inhibition at 0.01 µM was -5% and the inhibition at 0.1 µM worked out at 12%. In assay [2], the inhibition at 0.01 µM worked out at 7% and the inhibition at 0.1 µM was determined as 39%.
For `C[C@H]1O[C@@H](n2c3ccccc3c3c4c(c5c6ccccc6[nH]c5c32)C(=O)NC4=O)C[C@@H](O)[C@@H]1O` [formula (VI), N^13-1′-β-D-olivosylarcyriaflavin] the same measures were 7%, 50%, 42% and 88%.
Take `C[C@]12O[C@H]([C@H](O)[C@H](O)[C@H]1O)n1c3ccccc3c3c4c(c5c6ccccc6n2c5c31)C(=O)NC4=O` [formula (VII), N^12-5′(S)-N^13-1′-(R)-L-rhamnosylarcyriaflavin]: the IC50 in assay [1] turned out to be 0.17 nM; in assay [2] it was 0.5 nM.
For `C[C@]12O[C@H](C[C@@H](O)[C@H]1O)n1c3ccccc3c3c4c(c5c6ccccc6n2c5c31)C(=O)NC4=O` [formula (IX), N^12-5′(S)-N^13-1′-(R)-L-digitoxosylarcyriaflavin] the same measures were over 10 nM and 1.2 nM.
Consider `C[C@]12O[C@H](C[C@@H](O)[C@H]1O)n1c3ccccc3c3c4c(c5c6ccccc6n2c5c31)CNC4=O` [formula (XVIII), N^12-5′(S)-N^13-1′-(R)-L-digitoxosyl-k252c], for which the IC50 in assay [1] is over 100 nM; in assay [2] it was 0.53 nM.
Regarding `C[C@]12O[C@H]([C@H](O)[C@H](O)[C@H]1O)n1c3ccccc3c3c4c(c5c6ccccc6n2c5c31)CNC4=O` [formula (XVI), N^12-5′(S)-N^13-1′-(R)-L-rhamnosyl-k252c], in assay [2], the IC50 came to 0.43 nM.
For the molecule `C[C@@H]1O[C@@H](n2c3ccccc3c3c4c(c5c6ccccc6[nH]c5c32)C(=O)NC4=O)C[C@H](O)[C@H]1O` [formula (IV), N^13-1′-β-L-olivosylarcyriaflavin], the inhibition at 0.01 µM in assay [1] was 9%; in assay [2] it was 19%. For the same molecule, the inhibition at 0.1 µM in assay [1] is 60%; in assay [2], 74%.
Taken in the same sequence, the figures for `C[C@@H]1O[C@@H](n2c3ccccc3c3c4c(c5c6ccccc6[nH]c5c32)CNC4=O)C[C@@H](O)[C@H]1O` [formula (XIV), N^13-1′-β-L-digitoxosyl-k252c] were 27%, -4%, 24% and 25%.
On to `C[C@@H]1O[C@@H](n2c3ccccc3c3c4c(c5c6ccccc6[nH]c5c32)C(=O)NC4=O)C[C@@H](O)[C@H]1O` [formula (V), N^13-1′-β-L-digitoxosylarcyriaflavin], for which, in assay [1], the inhibition at 0.01 µM was 37% and the inhibition at 0.1 µM turned out to be 76%. In assay [2], the inhibition at 0.01 µM was 23% and the inhibition at 0.1 µM came to 65%.
Turning to `C[C@]12O[C@H](C[C@H](O)[C@H]1O)n1c3ccccc3c3c4c(c5c6ccccc6n2c5c31)C(=O)NC4=O` [formula (VIII), N^12-5′(S)-N^13-1′-(R)-L-olivosylarcyriaflavin], the IC50 was under 0.03 nM in assay [1] and 0.74 nM in assay [2].
`C[C@@H]1O[C@@H](n2c3ccccc3c3c4c(c5c6ccccc6[nH]c5c32)CNC4=O)C[C@H](O)[C@H]1O` [formula (XIII), N^13-1′-β-L-olivosyl-k252c]: in assay [1], the inhibition at 0.01 µM is -5% and the inhibition at 0.1 µM came out at 33%. Further, in assay [2], the inhibition at 0.01 µM was 14% and the inhibition at 0.1 µM was 79%.
Taken in the same sequence, the figures for `C[C@@H]1O[C@@H](n2c3ccccc3c3c4c(c5c6ccccc6[nH]c5c32)C(=O)NC4=O)[C@H](O)[C@H](O)[C@H]1O` [formula (III), N^13-1′-β-L-rhamnosylarcyriaflavin] were -10%, 32%, -3% and 33%.
